Measurements taken from the NIST ThermoML archive (doi:10.1016/j.tca.2019.178431).
Numbers after ± are expanded uncertainties.

Legend:
[1] = Crystal; DTA
[2] = Molar enthalpy of transition or fusion; settings: Crystal; DSC

Normal melting temperature [1]: 143.00 ± 0.4 °C | Molar enthalpy of transition or fusion [2]: 8.36 ± 0.203 kcal/mol
Compound: Clc1ccccc1C(c1ccccc1)(c1ccccc1)n1ccnc1 [1-((2-chlorophenyl)diphenylmethyl)-1H-imidazole]
